Like-named read-outs stand apart in the source and are kept apart here.
Columns and labels:
NRAS Q61K = NRAS Q61K (Homo sapiens, UniProt P01111+P62937, Q61K); experiment: Disruption of BRAF RBD interaction with Ras (FRET / MOA assay, with Cyclophilin A); assay type: biochemical; settings: NRAS Q61K; read-out: NRAS Q61K FRET data IC50
How it was run: (§1)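 IC50 reflects compound-driven Ras:Cyclophilin A ternary complex displacing BRAF RBD, read as lowered TR-FRET ratio relative to DMSO after Eu anti-His (10 nM) and APC anti-GST (50 nM) detection for 1.5 h. Prior incubation 3 h, 25° C, with 12.5 nM GMPPNP-loaded Ras, 50 nM BRAF RBD, 25 μM Cyclophilin A; top compound 30 μM.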

KRAS Q61H = KRAS Q61H (Homo sapiens, UniProt P01116+P62937, Q61H); experiment: as above; assay type: biochemical; settings: KRAS Q61H; read-out: KRAS Q61H FRET data IC50
Chain of KRAS Q61H (P01116 1-169 isoform P01116-2 Q61H limits assumed): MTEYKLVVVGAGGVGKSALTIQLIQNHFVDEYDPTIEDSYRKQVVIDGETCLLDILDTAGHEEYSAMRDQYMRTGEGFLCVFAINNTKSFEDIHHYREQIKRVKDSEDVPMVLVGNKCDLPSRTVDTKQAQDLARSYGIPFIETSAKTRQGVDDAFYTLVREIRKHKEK
Chain of KRAS Q61H (P62937 whole entry): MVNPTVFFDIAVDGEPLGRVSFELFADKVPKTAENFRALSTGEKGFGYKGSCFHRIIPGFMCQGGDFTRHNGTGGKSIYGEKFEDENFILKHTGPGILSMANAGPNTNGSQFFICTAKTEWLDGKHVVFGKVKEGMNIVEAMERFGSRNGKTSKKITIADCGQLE
How it was run: as §1

NRAS Q61R = NRAS Q61R (Homo sapiens, UniProt P01111+P62937, Q61R); experiment: as above; assay type: biochemical; settings: NRAS Q61R; read-out: NRAS Q61R FRET data IC50
Chain of NRAS Q61R (P01111 whole entry Q61R): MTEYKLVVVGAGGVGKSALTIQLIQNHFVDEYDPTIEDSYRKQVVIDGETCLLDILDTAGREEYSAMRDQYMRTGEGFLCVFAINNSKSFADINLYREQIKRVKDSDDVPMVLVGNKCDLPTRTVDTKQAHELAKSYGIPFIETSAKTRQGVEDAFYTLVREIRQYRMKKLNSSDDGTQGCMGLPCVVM
Chain of NRAS Q61R (P62937 whole entry): as the sequence (P62937 whole entry) above
How it was run: as §1

[1] = test system: K-Ras G12C (NCI-H358 cells); experiment: Potency assay: pERK (AlphaLISA SureFire or In-Cell Western); assay type: cell-based; settings: Homo sapiens, NCI-H358
How it was run: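 Cellular pERK decrease measured after 4 h compound exposure (37 °C, 5% CO2) of NCI-H358 cells, 10-point 3-fold series from 10 mM DMSO stock, duplicates. Detection either by In-Cell Western (IR-800CW secondary, DRAQ5 stain) or AlphaLISA SureFire Ultra p-ERK1/2; 4-parameter sigmoidal fit gave IC50.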

[2] = H358 KRAS G12C, read-out: pERK EC50

Chain of NRAS Q61K (P01111 whole entry Q61K): as the sequence (P01111 whole entry Q61R) above, with R61K counted along it
Chain of NRAS Q61K (P62937 whole entry): as the sequence (P62937 whole entry) above

| IC50 (NRAS Q61K) [µM] | IC50 (KRAS Q61H) [µM] | IC50 (NRAS Q61R) [µM] | EC50 [1, 2] [µM] | EC50 ([1]; read-out: H358 pERK EC50) [µM] | SMILES |
| --- | --- | --- | --- | --- | --- |
| 0.01 to 0.1 | 0.01 to 0.1 | 0.01 to 0.1 | < 5 | – | C=CC(=O)N1CCO[C@@]2(CCN(C(=O)N(C)[C@H](C(=O)N[C@H]3Cc4nc(cs4)-c4ccc5c(c4)c(c(-c4cccnc4[C@H](C)OC)n5CC(F)(F)F)CC(C)(C)COC(=O)C4CCCN(N4)C3=O)C(C)C)C2)C1 (stereo partly drawn) [Example A594] |
| > 10 | 1 to 10 | > 10 | < 5 | – | CCn1c(-c2cccnc2[C@H](C)OC)c2c3cc(ccc31)-c1cccc(c1)C[C@H](NC(=O)[C@H](C(C)C)N1CC[C@]3(CCN(C(=O)C#C[C@@H]4COCCN4C4COC4)C3)C1=O)C(=O)N1CCC[C@H](N1)C(=O)OCC(C)(C)C2 [Example A565] |
| 0.01 to 0.1 | 0.01 to 0.1 | 0.1 to 1 | < 5 | – | C=CC(=O)N(C)C1CCN(C(=O)N(C)[C@H](C(=O)N[C@H]2Cc3nc(cs3)-c3ccc4c(c3)c(c(-c3cccnc3[C@H](C)OC)n4CC)CC(C)(C)COC(=O)[C@@H]3CCCN(N3)C2=O)C(C)C)C1 (stereo partly drawn) [Example A384] |
| 1 to 10 | 1 to 10 | > 10 | < 5 | – | CCn1c(-c2cccnc2[C@H](C)OC)c2c3cc(ccc31)-c1csc(n1)C[C@H](NC(=O)[C@H](COC1CN(C(=O)C#CC(C)(C)N(C)C)C1)OC)C(=O)N1CCC[C@H](N1)C(=O)OCC(C)(C)C2 (atropisomer, axis not shown) [Example A705] |
| 0.01 to 0.1 | 0.01 to 0.1 | 0.1 to 1 | < 5 | – | C=CC(=O)N1CC[C@@H](N(C)C(=O)N(C)[C@H](C(=O)N[C@H]2Cc3nc(cs3)-c3ccc4c(c3)c(c(-c3cccnc3[C@H](C)OC)n4CC)CC(C)(C)COC(=O)[C@@H]3CCCN(N3)C2=O)C(C)C)C1 [Example A349] |
| 0.01 to 0.1 | 0.01 to 0.1 | 0.01 to 0.1 | < 5 | – | C=CC(=O)N1CCC2(C1)CN(C(=O)N(C)[C@H](C(=O)N[C@H]1Cc3nc(cs3)-c3ccc4c(c3)c(c(-c3cccnc3[C@H](C)OC)n4CC(F)(F)F)CC(C)(C)COC(=O)C3CCCN(N3)C1=O)C(C)C)C2 (stereo partly drawn) [Example A603] |
| 0.1 to 1 | 0.01 to 0.1 | 0.1 to 1 | < 5 | – | C=CC(=O)N1CCOC2(CCN(C(=O)N(C)[C@H](C(=O)N[C@H]3Cc4cc(CF)cc(c4)-c4ccc5c(c4)c(c(-c4cccnc4[C@H](C)OC)n5CC(F)(F)F)CC(C)(C)COC(=O)C4CCCN(N4)C3=O)C(C)C)CC2)C1 (stereo partly drawn) [Example A605] |
| 0.1 to 1 | 0.01 to 0.1 | 0.1 to 1 | < 5 | – | C=CC(=O)N1CCOC2(CCN(C(=O)N(C)[C@H](C(=O)N[C@H]3Cc4nc(n(C)n4)-c4ccc5c(c4)c(c(-c4cccnc4[C@H](C)OC)n5CC(F)(F)F)CC(C)(C)COC(=O)C4CCCN(N4)C3=O)C(C)C)CC2)C1 (stereo partly drawn) [Example A606] |
| 1 to 10 | 1 to 10 | 1 to 10 | < 5 | – | CC#CC(=O)N1CC[C@H](C(=O)N(C)[C@H](C(=O)N[C@H]2Cc3nc(cs3)-c3ccc4c(c3)c(c(-c3cccnc3[C@H](C)OC)n4CC)CC(C)(C)COC(=O)[C@@H]3CCCN(N3)C2=O)C(C)C)C1 [Example A168] |
| 1 to 10 | 1 to 10 | 1 to 10 | < 5 | – | CCn1c(-c2cccnc2[C@H](C)OC)c2c3cc(ccc31)N1CCO[C@@](C)(CC(NC(=O)[C@H](C(C)C)N(C)C(=O)C3(F)CCN(C(=O)C#CC(C)(C)N(C)C)CC3)C(=O)N3CCC[C@H](N3)C(=O)OCC(C)(C)C2)C1 (stereo partly drawn) [Example A550] |
| 0.1 to 1 | 0.01 to 0.1 | 0.1 to 1 | < 5 | – | C=CC(=O)N1CC[C@H](C(=O)N(C)[C@H](C(=O)N[C@H]2Cc3cc(O)cc(c3)-c3ccc4c(c3)c(c(-c3ccnc5c3[C@@H](OC)CC5)n4CC)CC(C)(C)COC(=O)[C@@H]3CCCN(N3)C2=O)C(C)C)C1 [Example A275] |
| 0.1 to 1 | 0.01 to 0.1 | 0.1 to 1 | < 5 | – | C=CC(=O)N1CCOC2(CCN(C(=O)N(C)[C@H](C(=O)N[C@H]3Cc4cccc(c4)-c4ccc5c(c4)c(c(-c4cccnc4[C@H](C)OC)n5CC(F)(F)F)CC(C)(C)COC(=O)C4CCCN(N4)C3=O)C(C)C)CC2)C1 (stereo partly drawn) [Example A608] |
| 0.1 to 1 | 0.1 to 1 | 0.1 to 1 | < 5 | – | C=CC(=O)N1CCO[C@H]2CN(C(=O)N(C)[C@H](C(=O)N[C@H]3Cc4cccc(n4)-c4ccc5c(c4)c(c(-c4cccnc4[C@H](C)OC)n5CC(F)(F)F)CC(C)(C)COC(=O)C4CCCN(N4)C3=O)C(C)C)C[C@H]21 (stereo partly drawn) [Example A595] |
| > 10 | > 10 | > 10 | < 5 | – | C=CS(=O)(=O)N1CC[C@H](C(=O)N(C)[C@H](C(=O)N[C@H]2Cc3nc(cs3)-c3ccc4c(c3)c(c(-c3cncnc3)n4CC)CC(C)(C)COC(=O)[C@@H]3CCCN(N3)C2=O)C(C)C)C1 [Example A170] |
| 0.1 to 1 | 0.01 to 0.1 | 0.1 to 1 | – | 0.018 | CCn1c(-c2cccnc2[C@H](C)OC)c2c3cc(ccc31)-c1cc(O)cc(c1)C[C@H](NC(=O)[C@H](C(C)C)N(C)C(=O)[C@H]1CCN(C(=O)OC)C1)C(=O)N1CCC[C@H](N1)C(=O)OCC(C)(C)C2 (atropisomer, axis not shown) [Example A3] |
| 1 to 10 | 0.1 to 1 | 1 to 10 | < 5 | – | C=CC(=O)N1CC(OC[C@H](C(=O)N[C@H]2Cc3cc(F)cc(c3)-c3ccc4c(c3)c(c(-c3cccnc3[C@H](C)OC)n4CC)CC(C)(C)COC(=O)[C@@H]3CCCN(N3)C2=O)C(C)C)C1 (atropisomer, axis not shown) [Example A725] |
| 0.01 to 0.1 | 0.01 to 0.1 | 0.01 to 0.1 | < 5 | – | C=CC(=O)N1CCO[C@H]2CCN(C(=O)N(C)[C@H](C(=O)N[C@H]3Cc4nc(cs4)-c4ccc5c(c4)c(c(-c4cccnc4[C@H](C)OC)n5CC)CC(C)(C)COC(=O)C4CCCN(N4)C3=O)C(C)C)C[C@@H]21 (stereo partly drawn) [Example A609] |

| SMILES | IC50 (NRAS Q61K) [µM] | IC50 (KRAS Q61H) [µM] | IC50 (NRAS Q61R) [µM] | EC50 [1, 2] [µM] | EC50 ([1]; read-out: H358 pERK EC50) [µM] |
| --- | --- | --- | --- | --- | --- |
| CO[C@@H](COC1CN(C(=O)C#CC(C)(C)N(C)C)C1)C(=O)N[C@H]1Cc2cccc(c2)-c2ccc3c(c2)c(c(-c2cccnc2[C@H](C)OC)n3CC(F)(F)F)CC(C)(C)COC(=O)[C@@H]2CCCN(N2)C1=O [Example A556] | > 10 | – | > 10 | < 5 | – |
| C=CC(=O)N1CC[C@H](C(=O)N(C)[C@H](C(=O)N[C@H]2Cc3cc(O)cc(c3)-c3ccc4c(c3)c(c(-c3cc(C)cnc3[C@H](C)OC)n4CC)CC(C)(C)COC(=O)[C@@H]3CCCN(N3)C2=O)C(C)C)C1 [Example A167] | 0.1 to 1 | 0.01 to 0.1 | 0.1 to 1 | < 5 | – |
| CCn1c(-c2cccnc2[C@H](C)OC)c2c3cc(ccc31)-c1csc(n1)C[C@H](NC(=O)[C@H](C(C)C)N(C)C(=O)N(C)C1CN(C(=O)/C=C/C(C)(C)O)C1)C(=O)N1CCC[C@H](N1)C(=O)OCC(C)(C)C2 (atropisomer, axis not shown) [Example A350] | 0.01 to 0.1 | 0.01 to 0.1 | 0.1 to 1 | < 5 | – |
| CCn1c(-c2cccnc2[C@H](C)OC)c2c3cc(ccc31)-c1cccc(c1)C[C@H](NC(=O)[C@H](C(C)C)N1CC[C@]3(CCN(C(=O)C#C[C@]4(N(C)C)CCOC4)C3)C1=O)C(=O)N1CCC[C@H](N1)C(=O)OCC(C)(C)C2 [Example A559] | 1 to 10 | 0.1 to 1 | 1 to 10 | < 5 | – |
| CCn1c(-c2cccnc2[C@H](C)OC)c2c3cc(ccc31)-c1cccc(c1)C[C@H](NC(=O)[C@@H](COC1CN(C(=O)C#C[C@@H]3COCCN3C)C1)C(C)C)C(=O)N1CCC[C@H](N1)C(=O)OCC(C)(C)C2 (atropisomer, axis not shown) [Example A648] | > 10 | > 10 | > 10 | < 5 | – |
| C=CC(=O)N1CCOC2(CCN(C(=O)N(C)[C@H](C(=O)N[C@H]3CN4CCC=C(C4)c4ccc5c(c4)c(c(-c4cccnc4[C@H](C)OC)n5CC)CC(C)(C)COC(=O)[C@@H]4CCCN(N4)C3=O)C(C)C)CC2)C1 [Example A563] | 1 to 10 | 1 to 10 | > 10 | < 5 | – |
| CCn1c(-c2cccnc2[C@H](C)OC)c2c3cc(ccc31)-c1cccc(c1)C[C@H](NC(=O)[C@@H](CN1CC[C@]3(CCN(C(=O)C#C[C@H]4COCCN4C)C3)C1=O)C(C)C)C(=O)N1CCCC(N1)C(=O)OCC(C)(C)C2 (stereo partly drawn) [Example A592] | > 10 | 1 to 10 | > 10 | < 5 | – |
| CCn1c(-c2cccnc2[C@H](C)OC)c2c3cc(ccc31)-c1csc(n1)C[C@H](NC(=O)[C@H](C(C)C)N(C)C(=O)N1CC(N(C)C(=O)C#CC(C)(C)N3CCC3)C1)C(=O)N1CCC[C@H](N1)C(=O)OCC(C)(C)C2 [Example A379] | 0.1 to 1 | 0.01 to 0.1 | 0.1 to 1 | < 5 | – |
| CCn1c(-c2cccnc2[C@H](C)OC)c2c3cc(ccc31)N1CCO[C@@H](C[C@H](NC(=O)[C@H](C(C)C)N(C)C(=O)[C@@]3(F)CCN(C(=O)C#CC(C)(C)N4CCC4)C3)C(=O)N3CCC[C@H](N3)C(=O)OCC(C)(C)C2)C1 [Example A726] | > 10 | – | > 10 | < 5 | – |
